Some test systems named below: 786-0 renal; HT29 colon; M14 melanoma; NCI-H226 lung; NCI-H23 lung; RPMI-8226 leukemia; SNB-19 CNS; SF-268 CNS; DU-145 prostate; MDA-MB-231 breast.
What all share (experiment): NCI tumour cell line growth inhibition, 48 h

The results in this text go back to PubChem BioAssay (NCI).

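Test compounds were applied to cells in 96-well plates for 48 hours at 5 doses. TGI: concentration producing complete growth inhibition.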

Consider `COc1nc(NC2OC(COC(C)=O)C(OC(C)=O)C(OC(C)=O)C2OC(C)=O)c2c(OC(C)=O)cc(=O)oc2n1` (stereo unspecified), for which the TGI with 786-0 renal, in the assay on HT29 colon, in the assay on M14 melanoma, in the assay with NCI-H226 lung, with NCI-H23 lung and in the assay with RPMI-8226 leukemia was > 100 µM each time. Further, in the assay on SNB-19 CNS, the TGI was > 100 µM.

As to `CC(=O)O/N=C(/C)c1ccccc1O`, the TGI in the assay with 786-0 renal, in the assay with HT29 colon, in the assay on M14 melanoma, with NCI-H226 lung, in the assay on NCI-H23 lung and with RPMI-8226 leukemia was > 100 µM throughout. Also, the TGI in the assay with SF-268 CNS and in the assay with SNB-19 CNS was > 100 µM each time.

Consider `CC(C)(C)c1cc2c(O)c3cccc4c(=O)c5cccc6c5-c(c34)c2c(c1)c6=O`, for which the TGI with 786-0 renal, with HT29 colon, in the assay with M14 melanoma, with NCI-H226 lung, in the assay on NCI-H23 lung and with SF-268 CNS was > 100 µM each time. In addition, the TGI in the assay with SNB-19 CNS was > 100 µM.

Regarding `C=C(C)CCOC(c1ccccc1)(c1ccccc1)c1ccccc1`, the TGI in the assay with 786-0 renal was > 100 µM; in the assay on HT29 colon, 70.6 µM; with M14 melanoma, > 100 µM; with NCI-H226 lung, 97.8 µM; in the assay on NCI-H23 lung, > 100 µM; in the assay on RPMI-8226 leukemia, > 100 µM. For the same compound, the TGI in the assay on SF-268 CNS and in the assay on SNB-19 CNS was > 100 µM in each case.

`CCCCN(CCCC)C(=O)C(=O)C(C(=O)c1ccc(OC)cc1)c1ccc(OC)cc1` (stereo unspecified): the TGI in the assay with 786-0 renal, in the assay on HT29 colon, in the assay with M14 melanoma, in the assay with NCI-H226 lung, in the assay on NCI-H23 lung and in the assay with SF-268 CNS was > 100 µM each time. Also, in the assay with SNB-19 CNS, the TGI was > 100 µM.

With `Cc1ccc(/C=C/C(=O)CCN(C)C)cc1`, the TGI was 32.6 µM in the assay on 786-0 renal; 33.4 µM with HT29 colon; 38.7 µM in the assay with M14 melanoma; 49.4 µM with NCI-H226 lung; 79 µM in the assay with NCI-H23 lung; > 100 µM in the assay on RPMI-8226 leukemia. In addition, the TGI is 47.5 µM with SF-268 CNS and > 100 µM in the assay with SNB-19 CNS.

As for `O=C(Nc1ccccc1-c1nn(C(=S)Nc2ccccc2)c(=S)n(C(=S)Nc2ccccc2)c1=O)C(F)(F)F`, the TGI in the assay with 786-0 renal is > 100 µM; with HT29 colon, > 78.9 µM; with M14 melanoma, 53.3 µM; with NCI-H226 lung, 76 µM; with NCI-H23 lung, > 31.6 µM; in the assay with RPMI-8226 leukemia, 50.2 µM. Besides, the TGI in the assay with SF-268 CNS and with SNB-19 CNS was > 100 µM in each case.

Consider `COc1ccc(C)cc1-c1cc(Sc2ccccc2)c(-c2cc(C)ccc2OC)o1`, for which the TGI in the assay with 786-0 renal, in the assay on HT29 colon, with M14 melanoma, in the assay with NCI-H226 lung, in the assay with NCI-H23 lung and in the assay with RPMI-8226 leukemia was > 31.6 µM each time. For the same compound, the TGI in the assay on SF-268 CNS and with SNB-19 CNS was > 31.6 µM each time.

With `C/C(CCn1[nH]c(=O)ccc1=O)=N\NC(=O)C(=O)NN`, the TGI in the assay on 786-0 renal, in the assay with HT29 colon, in the assay on M14 melanoma, with NCI-H226 lung, in the assay with NCI-H23 lung and in the assay on RPMI-8226 leukemia was > 100 µM each time. Also, the TGI with SF-268 CNS and with SNB-19 CNS was > 100 µM each time.

With `O=S(=O)(N/N=C/c1cccc(/C=N/NS(=O)(=O)c2ccccc2)c1)c1ccccc1`, the TGI in the assay with 786-0 renal, in the assay with HT29 colon, in the assay on M14 melanoma, in the assay with NCI-H226 lung, in the assay on NCI-H23 lung and in the assay on RPMI-8226 leukemia was > 100 µM in each case. Further, the TGI with SF-268 CNS was > 100 µM.

Take `CN(C)CCn1c2c3ccccc3ccc2c2oc(=O)c3ccccc3c21`: the TGI in the assay with 786-0 renal was found to be 7.14 µM; with HT29 colon it was 16.6 µM; with M14 melanoma, 19.1 µM; in the assay on NCI-H23 lung, 18.9 µM; with RPMI-8226 leukemia it was 43.2 µM; with SF-268 CNS, 7.86 µM. For the same compound, the TGI in the assay with SNB-19 CNS is 29.4 µM.

As to `Oc1[nH]c2ccccc2c1N=Nc1nc(-c2ccc(Br)cc2)cs1`, the TGI with 786-0 renal was 35.8 µM; in the assay on DU-145 prostate, 68 µM; in the assay with HT29 colon, 32.9 µM; with M14 melanoma, 59.2 µM; with MDA-MB-231 breast, 62.5 µM; with NCI-H23 lung it was > 100 µM. The TGI in the assay with SF-268 CNS was 46.8 µM; with SNB-19 CNS, 40.7 µM.

For the compound `c1ccc(NCn2cnc3ccccc32)cc1`, the TGI is > 100 µM in the assay with 786-0 renal; > 100 µM in the assay with HT29 colon; > 100 µM in the assay with NCI-H226 lung; > 100 µM in the assay with NCI-H23 lung; 71.6 µM in the assay with RPMI-8226 leukemia; > 100 µM with SF-268 CNS. Also, the TGI with SNB-19 CNS was > 100 µM.

Regarding `CCOC(=S)SCC(=O)O`, the TGI with 786-0 renal, with HT29 colon, in the assay on M14 melanoma, in the assay on MDA-MB-231 breast, in the assay on NCI-H226 lung and in the assay with NCI-H23 lung was > 100 µM each time. Moreover, the TGI in the assay on RPMI-8226 leukemia, in the assay with SF-268 CNS and in the assay on SNB-19 CNS was > 100 µM in each case.

Regarding `Cc1ccc(Oc2ccc(C)cc2N)cc1`, the TGI in the assay on 786-0 renal, in the assay on HT29 colon, in the assay with M14 melanoma, in the assay on NCI-H226 lung, in the assay with NCI-H23 lung and in the assay with RPMI-8226 leukemia was > 100 µM in each case. Moreover, the TGI in the assay on SF-268 CNS and in the assay on SNB-19 CNS was > 100 µM each time.

With `Cc1cc2c(C)[nH]nc2c(C(=O)O)c1C`, the TGI in the assay on 786-0 renal, with HT29 colon, in the assay with NCI-H23 lung, in the assay on RPMI-8226 leukemia and in the assay with SNB-19 CNS was > 100 µM each time.

In the case of `O=C1C=CC(=O)c2nc3c(cc21)CCC3`, the TGI in the assay with 786-0 renal was 33.4 µM; in the assay with HT29 colon, > 100 µM; in the assay with M14 melanoma, 31 µM; in the assay on NCI-H23 lung it was 64.6 µM; with SF-268 CNS, 37.3 µM; in the assay with SNB-19 CNS it was > 100 µM.
